Earlier results in patent US20080227813A1, “Pharmaceutical compositions and methods for treating diseases associated with neurodegeneration” (priority 2006, published 2008).

Tested on: patients suffering from ALS
Conditions: riluzole alone, previous studies; cited from earlier work

Nc1nc2ccc(OC(F)(F)F)cc2s1 [riluzole, Riluzole]
effect on VC: failed to demonstrate any effect
